# Where a SMILES comes first, the peptide text is derived from it. [ ]: non-standard residue; d: D form. pT = C[C@@H](OP(=O)(O)O)[C@H](N)C(=O)O
# What was measured:
# Skp1-FBXW7 complex = target: T1, Skp1-FBXW7 complex (Homo sapiens, UniProt P63208+Q969H0); assay: Fluorescence polarization competitive protein-peptide binding assay; details: for binding affinity to purified FBXW7 in vitro: FP based quantitative in vitro binding assay, result in words; for Kd: FP competition of unlabeled peptide against 50 nM CF-labeled CCNE peptide at ~60-80% complex formation, 20 mM Tris pH 8.0, 100 mM NaCl, 0.05% Brij35P, 2 mM TCEP, value with error
# T1 construct: human FBXW7 (263-707) with an N-terminal hexa-histidine (His6) tag; His6 (N, cleaved yes); made in house; host or cells: E. coli Rosetta (DE3)
# Description: Truncated Skp1 (1-149) and human FBXW7 (263-707) with an N-terminal hexa-histidine (His6) tag were cloned into a bicistronic plasmid (pMG950) and were co-expressed in E. coli Rosetta (DE3) strain. The Skp1-FBXW7 complex was purified using affinity, anion exchange, and gel filtration chromatography. The DNA expression plasmid was transformed into E. coli Rosetta (DE3) strain and grown in LB until OD600 = 0.5, protein expression was induced with 100 µM isopropyl-β-d-1-thigalatopyaranoside (IPTG) overnight at 18 °C. The cell pellet was lysed, and the recombinant protein was purified using Ni-NTA agarose beads. Before further purification the His6-tag was removed by using the TEV protease and then the protein complex was further purified using anion exchange chromatography twice, first with a Resource Q and then with a Mono Q column (pH = 8). Finally, the complex was subjected to size-exclusion chromatography in 20 mM Tris, pH = 8, 150 mM NaCl, and 1 mM DTT using a Superdex200 10/300 column (GE Healthcare, Chicago, IL, USA). The eluted fractions were pooled together and were supplemented with 10% glycerol and 2 mM TCEP before concentration and storage.
# Fluoresce polarization (FP) based protein–peptide binding affinity measurements were carried out using 50 nM carboxyfluorescein (CF) labeled CCNE peptide (CF-PSGLLpTPPQpSGKKQ) and data were fit to a direct or a competitive binding equation using OriginPro 2018 as described earlier. For the direct measurements the concentration of Skp1-FBXW7 complex was increased in a titration experiment and then the binding affinity (Ki) of the unlabeled peptide was determined by titrating the Skp1-FBXW7: labelled peptide complex sample, at a concentration corresponding to ~60–80% complex formation, with increasing amounts of unlabeled peptide. All the FP measurements were performed in 20 mM Tris (pH 8.0), 100 mM NaCl, 0.05% Brij35P, and 2 mM TCEP using a Cytation^TM 3 (BioTek Instruments) plate reader (384-well plates in 20 µL binding reaction volume). Peptides were chemically synthesized and were ordered from GenScript.
# FBXW7 = assay: Ratiometric EGFP/DsRed protein degradation assay with degron probes; assay type: cell-based, human; details: putative degron motif in EGFP-fused probe with AAKG2 MAPK docking motif; HEK293T, 48 h after transfection, EGFP/DsRed ratio with and without FBXW7 plasmid; search cycles 1-4
# Text: In order to be able to test putative phosphodegron motifs, a ratiometric protein level monitoring method was adapted to monitor MAPK controlled FBXW7 mediated protein degradation. Briefly, intact DsRed and an EGFP-chimera were expressed in HEK293T cells in equal amounts from an expression plasmid, giving an EGFP/DsRed fluorescence ratio close to one under non-degrading conditions. EGFP was fused to a probe comprised of a putative degron sequence and a known MAPK binding docking motif. EGFP signal is expected to diminish faster than DsRed in cells with more FBXW7 if the probe responded to degradation.
# We started out from an intentionally general consensus motif of FBXW7 degrons, inspired by the liberal [TS]P..[TS]P pattern defined for yeast Cdc4 substrates, and scanned the human disordered part of the proteome using SliMSearch4 (the disorder score cut-off was 0.4 and flank length was 5). In all, 22 motifs from this list were subjectively chosen and tested in the ratiometric degradation assay giving only 5 positives (see Supplementary Table S1). Based on the results of this first round, by taking information both from the identified positives and negatives, the consensus motif definition was narrowed to requiring a proline at P + 2, but motifs were allowed to have a phospho-mimicking residue (D or E) at P + 4 because it had been formerly reported that this second phosphorylatable residue may be replaced by aspartate or glutamate. […] In the third round, hydrophobic amino acids were more strictly required at positions −1/−2 and P − 1/2/3 positions were further narrowed and P + 4 position was relaxed based on the identified negatives, which gave a higher hit rate (4 out of 6). This third round gave functional motifs at a good rate, but the used motif definition was very restrictive compared to other known motifs. Finally, in the fourth round, we gave up using an optimal consensus and established the positional relaxation model. […] Hits on this final, most predictive list are presented in Supplementary Table S2. All entries were filtered for motif locations by UniProt annotations, discarding all enzyme-inaccessible (e.g., extracellular) instances. Motifs that had any overlapping PFAM domain indicated were manually assessed using the AlphaFold EBI website. Out of these, only motifs that were highly accessible and located outside of confidently predicted folded domains were kept. We also added kinase consensus compatibility to every motif and the number of experiments where phosphorylation could be detected from PhosphoSitePlus.
# The chimera degron module was ordered from IDT as gene Block (gBlock). It consisted of a coiled coil dimerization motif (GCN4: EELLSKNYHLENEVARLKK) to increase sensitivity by allowing multivalent binding, a MAPK binding docking motif (AAKG2: KKNASQKRRSLRVHIPDL), and the CycECO degron motif. The motifs were separated by Gly-Ser-Asn linkers and the gBlock was designed so that the motifs could be easily changed by using unique sets of restriction endonucleases. The gBlock was sub-cloned into the Gateway pENTR4 entry plasmid (Thermo Fisher, Waltham, MA, USA) using restriction enzymes (SalI and NotI). The pENTR4-chimera and the destination plasmid (MSCV-CMV-DsRed-IRES-EGFP-DEST from Addgene; 41941), [28]) were subjected to gateway cloning using LR clonase II enzyme (Invitrogen) to obtain the first DsRed-EGFP-chimera DNA construct containing the cycECO degron. Oligonucleotides corresponding to different degron sequences and docking motifs were ligated into the DsRed-EGFP-chimera DNA construct. The list of all the oligonucleotides used for cloning is provided in Supplementary Table S3. pcDNA3-FLAG-FBXW7α was a kind gift from Michael Pagano (New York University). The FBXW7 arginine mutant (Arg mutant: R465C; R479Q; R505L) was created using two-step PCR and cloned into the pcDNA3-FLAG plasmid. […]
# T1 sequence (Q969H0 263-707): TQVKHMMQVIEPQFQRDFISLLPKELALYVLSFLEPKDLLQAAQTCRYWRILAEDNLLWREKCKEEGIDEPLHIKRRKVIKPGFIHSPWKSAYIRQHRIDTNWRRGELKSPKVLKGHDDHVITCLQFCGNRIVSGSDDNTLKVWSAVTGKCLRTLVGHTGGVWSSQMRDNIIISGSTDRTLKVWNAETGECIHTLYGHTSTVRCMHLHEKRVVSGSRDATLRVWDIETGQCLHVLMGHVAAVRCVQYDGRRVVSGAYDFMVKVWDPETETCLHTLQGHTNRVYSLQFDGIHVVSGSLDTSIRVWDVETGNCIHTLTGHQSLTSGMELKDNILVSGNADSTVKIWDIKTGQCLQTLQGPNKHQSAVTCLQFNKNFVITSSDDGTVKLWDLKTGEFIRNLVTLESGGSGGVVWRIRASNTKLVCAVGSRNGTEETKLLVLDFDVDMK
# T1 sequence (P63208 1-149 partner limits assumed): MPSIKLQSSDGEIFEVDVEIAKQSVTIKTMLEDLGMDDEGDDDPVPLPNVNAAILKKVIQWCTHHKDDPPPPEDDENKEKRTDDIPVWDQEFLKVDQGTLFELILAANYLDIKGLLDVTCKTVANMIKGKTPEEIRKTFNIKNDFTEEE
binding affinity to purified FBXW7 in vitro (Skp1-FBXW7 complex),Kd (Skp1-FBXW7 complex) [nM],Compound,Outcome (FBXW7)
low nanomolar,17.7 ± 0.6,CC(C)C[C@H](NC(=O)[C@@H](NC(=O)[C@H](CO)NC(=O)[C@H](CC(N)=O)NC(=O)[C@@H](N)CO)C(C)C)C(=O)N[C@@H](CC(N)=O)C(=O)N[C@H](C(=O)N1CCC[C@H]1C(=O)N1CCC[C@H]1C(=O)N[C@H](C(=O)N[C@H](C(=O)N1CCC[C@H]1C(=O)N[C@@H](CCC(=O)O)C(=O)N[C@@H](CO)C(=O)N1CCC[C@H]1C(=O)O)[C@@H](C)OP(=O)(O)O)[C@@H](C)O)[C@@H](C)OP(=O)(O)O [ARID4B] (H-SNSVLN[pT]PPT[pT]PESP-OH),–
low nanomolar,16.1 ± 2.1,CC(C)C[C@H](NC(=O)[C@@H]1CCCN1C(=O)[C@H](CCCCN)NC(=O)[C@H](Cc1ccccc1)NC(=O)CNC(=O)[C@@H](N)CO)C(=O)N[C@H](C(=O)N1CCC[C@H]1C(=O)N1CCC[C@H]1C(=O)N[C@H](C(=O)N[C@H](C(=O)N1CCC[C@H]1C(=O)N[C@@H](CC(C)C)C(=O)N[C@@H](CO)C(=O)N1CCC[C@H]1C(=O)O)[C@@H](C)OP(=O)(O)O)[C@@H](C)O)[C@@H](C)OP(=O)(O)O [ETV5] (H-SGFKPL[pT]PPT[pT]PLSP-OH),–
low nanomolar,29.7 ± 3.2,CC[C@H](C)[C@H](NC(=O)[C@@H]1CCCN1C(=O)[C@@H]1CCCN1C(=O)[C@@H](NC(=O)[C@@H](NC(=O)[C@@H]1CCCN1C(=O)[C@@H]1CCCN1C(=O)[C@@H](NC(=O)[C@H](CC(C)C)NC(=O)[C@H](CO)NC(=O)CNC(=O)[C@H](CO)NC(=O)[C@H](CO)NC(=O)[C@@H](N)Cc1c[nH]cn1)[C@@H](C)OP(=O)(O)O)C(C)C)[C@@H](C)OP(=O)(O)O)C(=O)N[C@H](C(=O)O)[C@@H](C)O [JAZF1] (H-HSSGSL[pT]PPV[pT]PPIT-OH),–
low nanomolar,2.8 ± 0.2,CSCC[C@H](NC(=O)[C@@H]1CCCN1C(=O)[C@@H](NC(=O)[C@H](CCC(=O)O)NC(=O)[C@@H]1CCCN1C(=O)[C@@H]1CCCN1C(=O)[C@@H](NC(=O)[C@H](Cc1ccc(O)cc1)NC(=O)[C@H](CC(C)C)NC(=O)[C@H](CC(N)=O)NC(=O)[C@H](CC(C)C)NC(=O)[C@H](CCCCN)NC(=O)[C@@H](N)Cc1ccccc1)[C@@H](C)OP(=O)(O)O)[C@@H](C)OP(=O)(O)O)C(=O)N[C@@H](CCC(=O)O)C(=O)N1CCC[C@H]1C(=O)O [KAT6B] (H-FKLNLY[pT]PPE[pT]PMEP-OH),–
–,–,"SPGDSPPGTPPASPPSSAWQ [TBC1D4, putative FBXW7 degron motif tested as EGFP-fused degradation probe]",Negative
–,–,"SRNHSPSPPVTPTGAA [NHSL1, putative FBXW7 degron motif tested as EGFP-fused degradation probe]",Negative
–,–,"STKRKPRVSPPASPTLEVE [SH3RF1, putative FBXW7 degron motif tested as EGFP-fused degradation probe]",Negative
–,–,"TANLPPSPPPSPASEQT [MAP2, putative FBXW7 degron motif tested as EGFP-fused degradation probe]","Positive (tested positive, where +FBXW7/control protein level ratio was lower than 1)"
–,–,"TCPNSPSTPPSTPSPRV [SOS2, putative FBXW7 degron motif tested as EGFP-fused degradation probe]",Negative
–,–,"TEPRSSPSPPPSPTEPE [CUX2, putative FBXW7 degron motif tested as EGFP-fused degradation probe]",Negative
–,–,"TTVTPPGTPPMR [KSR2-b, putative FBXW7 degron motif tested as EGFP-fused degradation probe]",Negative
–,–,"VAVSPTPPVSPEVRST [CEP164, putative FBXW7 degron motif tested as EGFP-fused degradation probe]",Negative
–,–,"VKRTLPSPPPEEAHLP [BSN, putative FBXW7 degron motif tested as EGFP-fused degradation probe]",Negative
